Entries after “also recorded” stand apart in the source; their conditions may differ. Read-outs that look alike come from different tables or passages of the source.
How the values were obtained:
[1] = system: human osteoblast cultures; experiment: Bone nodule formation in vitro in human osteoblast cultures (Von Kossa stain); format: cell-based; conditions: for formation of mineralized bone by osteoblast cultures (Von Kossa stain, FIG. 2): different concentrations (10^−8 to 10^−12 molar)
Source text: Human bone samples discarded after surgical procedures from patients undergoing hip/knee replacement surgeries are obtained under an approved IRB protocol (Protocol #2001-055) and processed as described below. These bone pieces are otherwise routinely discarded as waste material during surgery.
The bone pieces are thoroughly washed and cleaned under sterile conditions using phosphate-buffered saline (PBS). These pieces are then cut to obtain smaller pieces (1-2 mm^3) and subjected to enzymatic digestion process to isolate osteoblasts as described below.
Osteoblastic cells are obtained from the bone pieces by collagenase digestion. Briefly, the bone samples are washed twice in PBS and dissected in about 1 mm^3 size fragments which are then sequentially digested in trypsin (1 mg/mL) for ten minutes, followed by dispase (2 mg/mL) for twenty minutes, and bacterial collagenase [Collagenase A] (3 mg/mL) twice for thirty minutes in PBS at 37° C. in a water bath. Cells released by collagenase digestion are then washed, counted and grown to sub-confluence in 25 cm^2 cell culture flasks in 1:1 Ham's F12/Dulbecco's modification of Eagle's medium (DMEM) supplemented with 10% fetal bovine serum. Cells are cultured at 37° C. in a humidified atmosphere of 5% CO2/95% air. Medium changes are made every 2-3 days and cells are cultured until they are 80% confluent. Cells are then trypsinized, washed and frozen from early passages for evaluation using techniques as described below.
In order to evaluate the ability of osteoblasts to form bone nodules in vitro, cells are cultured in 6 well plates at 1-3×10^5 cells/well. Cells are cultured in the presence of either 1,25-(OH)2D3 or vitamin D analogs at various doses for 7 days. Complete medium changes are carried out twice during the 7-day period and the medium is supplemented with fresh compounds (either 1,25-(OH)2D3 or 2-methylene-19-nor-(20S)-1α,25-dihydroxyvitamin D3—2MD) during each medium change. At days 10 and 13, complete medium changes are carried out and the compounds are replaced by treatment with ascorbic acid (50 μg/ml) and β-glycerol phosphate (10 mM). A third dose of ascorbic acid and β-glycerol phosphate is added to the cultures on day 15 if needed. Following the culture period, cells are stained using the Von Kossa technique. Briefly, cells are stained with 5% silver nitrate for 30 minutes in the dark, rinsed with distilled water, reduced with sodium carbonate/formaldehyde solution for 2 minutes and washed under tap water for 10 minutes. The cells are then stained with methyl green pyronin for 20 minutes, washed with water followed by two washes of absolute alcohol. […] Bone nodule formation in vitro can be assessed quantitatively by various published procedures.

ovariectomized rats = conditions: cited from earlier work; for bone mass: ovariectomized animal; for bone strength: ovariectomized rats
post-menopausal women = conditions: cited from earlier work

| Compound | degree of new bone formation ([1]; 10^−12 molar) | formation of mineralized bone by osteoblast cultures (Von Kossa stain, FIG. 2) [1] | bone mass (ovariectomized rats) | bone mass (ovariectomized rats; listed as 2-methylene-19-nor-20S-1,25-(OH)2D3) | bone strength (ovariectomized rats) | change in osteoblast cultures (photographs, FIG. 1) ([1]; 10^−8 molar, after 14 days of incubation) | bone mass (post-menopausal women) | fracture rate (post-menopausal women) |
| --- | --- | --- | --- | --- | --- | --- | --- | --- |
| C=C1[C@H](O)CC(=C/C=C2\CCC[C@]3(C)[C@@H]([C@@H](C)CCCC(C)(C)O)CC[C@@H]23)C[C@H]1O [2MD, 2-methylene-19-nor-(20S)-1α,25-dihydroxyvitamin D3] | saturating degree of new bone formation | unique and strong action | markedly stimulate bone mass accumulation | increase bone mass | increase bone strength |  |  |  |
| CC1C(O)CC(=CC=C2CCC[C@]3(C)[C@@H]([C@@H](C)CCCC(C)(C)O)CC[C@@H]23)CC1O (stereo partly drawn) [2α-methyl-19-nor-20S-1,25-(OH)2D3, 2α-methyl-19-nor-20(S)-1α,25-dihydroxyvitamin D3] |  |  | increase bone mass |  | increase bone strength |  |  |  |
| C=C1/C(=C\C=C2/CCC[C@]3(C)[C@@H]([C@H](C)CCCC(C)(C)O)CC[C@@H]23)C[C@@H](O)C[C@@H]1O [1,25-(OH)2D3, 1α,25-dihydroxyvitamin D3] |  | does not produce this effect; also recorded: minimum effect |  |  |  | very little change | will not appreciably increase the bone mass | will decrease the fracture rate |
